The record followed here is ChEMBL document CHEMBL1144214, “Structure-activity relationships of compounds targeting mycobacterium tuberculosis 1-deoxy-D-xylulose 5-phosphate synthase” (Bioorg Med Chem Lett, 2008).

Assay [1] deals with T1, 1-deoxy-D-xylulose-5-phosphate synthase (Mycobacterium tuberculosis, UniProt P9WNS3).
T1 sequence (P9WNS3 whole entry): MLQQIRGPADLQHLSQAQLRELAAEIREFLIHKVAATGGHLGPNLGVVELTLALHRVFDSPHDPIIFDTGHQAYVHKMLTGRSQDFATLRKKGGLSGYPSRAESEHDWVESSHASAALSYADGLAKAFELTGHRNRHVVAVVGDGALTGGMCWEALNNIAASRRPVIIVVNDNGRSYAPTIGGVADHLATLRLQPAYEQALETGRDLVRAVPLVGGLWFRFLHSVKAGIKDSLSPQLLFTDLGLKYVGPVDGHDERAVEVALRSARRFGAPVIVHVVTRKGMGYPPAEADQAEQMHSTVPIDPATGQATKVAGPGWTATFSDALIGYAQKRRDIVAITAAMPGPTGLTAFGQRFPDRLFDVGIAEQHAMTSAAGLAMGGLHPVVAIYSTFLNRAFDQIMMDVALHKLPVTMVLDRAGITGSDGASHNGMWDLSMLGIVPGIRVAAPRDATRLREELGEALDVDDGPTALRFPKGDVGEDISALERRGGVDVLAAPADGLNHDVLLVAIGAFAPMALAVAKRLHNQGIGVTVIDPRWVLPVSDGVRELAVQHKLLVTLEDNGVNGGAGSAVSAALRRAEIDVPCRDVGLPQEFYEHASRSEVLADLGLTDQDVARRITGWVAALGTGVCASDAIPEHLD
As to the kind of experiment: Inhibition of Mycobacterium tuberculosis cloned 1-deoxy-D-xylulose-5-phosphate synthase expressed in Escherichia coli.

Assay [2] relates to Mycobacterium tuberculosis. As to the kind of experiment: Antituberculosis activity against Mycobacterium tuberculosis. Format: functional.
A further assay deals with Vero. As to the kind of experiment: Cytotoxicity against african green monkey Vero cells. The assay is classed as cell-based. As to conditions: Chlorocebus sabaeus.
Another assay deals with T2, Transketolase (Homo sapiens, UniProt P29401).
T2 sequence (P29401 whole entry): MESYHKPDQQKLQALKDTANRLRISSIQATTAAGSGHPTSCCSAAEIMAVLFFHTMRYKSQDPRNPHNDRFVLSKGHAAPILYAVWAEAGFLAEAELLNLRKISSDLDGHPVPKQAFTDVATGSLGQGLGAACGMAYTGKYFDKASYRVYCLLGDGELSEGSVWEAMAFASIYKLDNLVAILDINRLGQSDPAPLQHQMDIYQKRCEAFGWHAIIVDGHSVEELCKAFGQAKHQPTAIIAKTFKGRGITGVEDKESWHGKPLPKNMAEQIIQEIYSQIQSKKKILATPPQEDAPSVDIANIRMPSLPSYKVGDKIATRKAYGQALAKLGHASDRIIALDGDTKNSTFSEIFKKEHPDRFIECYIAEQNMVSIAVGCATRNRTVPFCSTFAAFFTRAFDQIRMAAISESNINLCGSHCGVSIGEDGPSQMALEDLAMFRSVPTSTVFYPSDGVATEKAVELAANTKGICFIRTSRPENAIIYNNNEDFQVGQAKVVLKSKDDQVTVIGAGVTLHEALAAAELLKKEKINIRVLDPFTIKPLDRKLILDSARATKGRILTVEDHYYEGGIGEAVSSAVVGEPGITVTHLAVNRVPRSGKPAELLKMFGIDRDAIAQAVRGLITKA
The assay is described as follows: Inhibition of human recombinant transketolase expressed in Escherichia coli.

The nature of assay [3]: Selectivity index, ratio of IC50 for african green monkey Vero cells to MIC for Mycobacterium tuberculosis. Format: functional.

Molecules are shown by their SMILES. Converted amounts (≈) assume the structure as drawn.

For orientation: IC50 means the concentration that gives 50% inhibition. The term MIC denotes the lowest concentration found to suppress growth.

On to `CCOC(=O)Cc1c(C)nc2c(-c3ccccc3)cnn2c1O`, for which the concentration for half-maximal inhibition (IC50) in assay [1] was more than 200 µM.

`COCc1cc(=O)n2ncc(-c3ccc(Cl)cc3)c2[nH]1`: the IC50 in assay [1] is more than 200 µM.

As for `COc1ccccc1-c1cc(=O)n2nc(C)c(-c3ccc(Br)cc3)c2[nH]1`, in assay [1], the concentration for half-maximal inhibition (IC50) turned out to be 53.5 µM.

On to `Cc1[nH]c2c(-c3ccc(Cl)cc3)c(C(F)(F)F)nn2c(=O)c1Cc1ccccc1`, for which, in assay [1], the IC50 is more than 200 µM.

`COC(=O)Cc1cc(=O)n2nc(C(F)(F)F)c(-c3ccc(Br)cc3)c2[nH]1` displayed an IC50 in assay [1] of 73 µM.

In the case of `COc1ccc(-c2cc(=O)n3nc(C)c(-c4ccc(Cl)cc4)c3[nH]2)cc1`, the results for the IC50 (in assay [1]; in the assay with Vero) were 10.9 µM and 16 µM, respectively. In assay [2], this compound returned an MIC of 7.6 µM (≈ 2.78 µg/mL).

On to `Cc1cc(=O)n2ncc(-c3ccc(Cl)cc3)c2[nH]1`, for which the IC50 in assay [1] was more than 200 µM.

For `Cc1cc(=O)n2nc(C(F)(F)F)c(-c3ccc(Br)cc3)c2[nH]1`, in assay [1], the IC50 is more than 200 µM.

Regarding `COc1ccc(-c2cc(=O)n3nc(C)c(-c4ccc(F)cc4)c3[nH]2)cc1`, the IC50 came out at 10.6 µM in assay [1] and 35.6 µM in the assay on Vero. This compound registered an MIC in assay [2] of 7.7 µM (≈ 2.69 µg/mL).

Compound `O=c1cc(Cc2ccccc2)[nH]c2c(-c3ccccc3)c(C(F)(F)F)nn12` returned a half-inhibitory concentration (IC50) in assay [1] of 71.1 µM.

Consider `Cc1nn2c(=O)cc(CSc3ccc(Cl)cc3)[nH]c2c1-c1ccc(Cl)cc1`, for which, in assay [1], it took 41.4 µM to reach half-maximal inhibition (IC50).

Regarding `Brc1cccc(-c2cnn3c(-c4ccccc4)cc(-c4ccccc4)nc23)c1`, in assay [1], the IC50 was more than 200 µM.

Turning to `COCc1cc(=O)n2nc(C)c(-c3ccc(Cl)cc3)c2[nH]1`, the IC50 in assay [1] is more than 200 µM.

Compound `Cc1nn2c(=O)cc(CSc3ccc(Cl)cc3)[nH]c2c1-c1ccccc1` returned an IC50 in assay [1] of 63.7 µM.

Compound `O=c1cc(CCl)[nH]c2c(-c3ccccc3)cnn12` gave an IC50 in assay [1] of more than 200 µM.

In assay [1], `Cc1nn2c(=O)cc(-c3ccccc3)[nH]c2c1-c1ccccc1` had an IC50 of 30.6 µM.

For the compound `Cc1nn2c(=O)cc(-c3ccc4ccccc4c3)[nH]c2c1-c1ccccc1`, it took 19.5 µM to reach half-maximal inhibition in assay [1] (IC50).

Take `COc1ccc(-c2c(C)nn3c(=O)cc(-c4ccccc4)[nH]c23)cc1`: it took 90.7 µM to reach half-maximal inhibition in assay [1] (IC50).

On to `CCc1nn2c(=O)cc(-c3ccc(OC)cc3)[nH]c2c1-c1ccc(Cl)cc1`, for which the IC50 in assay [1] was found to be 19.7 µM.

Consider `O=c1cc(Cc2ccccc2)[nH]c2c(-c3ccc(Cl)cc3)cnn12`, for which the IC50 in assay [1] worked out at 114 µM; at Transketolase, 3.9 µM.

As for `COc1ccc(-c2c(C(F)(F)F)nn3c(O)cc(-c4ccccc4)nc23)cc1`, half-maximal inhibition in assay [1] (IC50) was put at 20.2 µM.

`Cc1nn2c(=O)cc(-c3ccccc3)[nH]c2c1-c1ccc(Cl)cc1`: the IC50 in assay [1] was determined as 34.2 µM; with Vero, 39.5 µM. Besides, in assay [2], the minimum inhibitory concentration (MIC) was 14.2 µM (≈ 4.77 µg/mL). For the same compound, the “Selectivity Index” value in assay [3] worked out at 4.6.

For `FC(F)(F)c1cc(-c2ccc(Cl)cc2)nc2c(-c3ccc(Cl)cc3)cnn12`, the half-maximal inhibitory concentration (IC50) in assay [1] is more than 200 µM.

`Cc1cc(=O)n2nc(C(F)(F)F)c(-c3ccc(Cl)cc3)c2[nH]1` showed an IC50 in assay [1] of 98.4 µM.

In the case of `O=c1cc(Cc2ccccc2)[nH]c2c(-c3ccc(Cl)cc3)c(C(F)(F)F)nn12`, the half-inhibitory concentration (IC50) in assay [1] stood at 14 µM.

For `Oc1cc(-c2ccccc2)nc2c(-c3ccccc3)c(C(F)(F)F)nn12`, the half-maximal inhibitory concentration (IC50) in assay [1] was found to be 23 µM.

Regarding `Cc1nn2c(=O)cc(CSc3nnnn3-c3ccccc3)[nH]c2c1-c1ccc(Cl)cc1`, the 50% inhibitory concentration (IC50) in assay [1] was 55.1 µM.

As for `COc1ccc(-c2cc(=O)n3nc(C)c(-c4ccc(OC)cc4)c3[nH]2)cc1`, the results for the IC50 (in assay [1]; with Vero) were 42.4 µM and 80.9 µM, respectively. In assay [2], this compound gave an MIC of 61.8 µM (≈ 22.3 µg/mL). The “Selectivity Index” value in assay [3] worked out at 2.1.
